In ChEMBL document CHEMBL5360584, “Sequence-Specific Dual DNA Binding Modes and Cytotoxicities of N-6-Functionalized Norcryptotackieine Alkaloids” (J Nat Prod, 2023):
pIC50, pKd: −log10 of the molar value. Blank lines part the entries; values can stand above or below the molecule they belong to. Activity calls are given as the source filed them. No cut-off for these calls is given here.

Experiments:
Calf thymus DNA [1] = test: Binding affinity to calf thymus DNA assessed as change in absorption by UV-Vis spectrophotometric analysis; format: nucleic-acid assay; conditions: Bos taurus
SK-OV-3 = test: Cytotoxicity against human SK-OV-3 cells assessed as reduction in cell viability incubated for 24 hrs by MTT assay; format: functional, cell-based; conditions: SK-OV-3, 24 h
B16-F10 = test: Cytotoxicity against mouse B16F10 cells assessed as reduction in cell viability incubated for 24 hrs by MTT assay; format: functional, cell-based; conditions: B16-F10, 24 h
HeLa = test: Cytotoxicity against human HeLa cells assessed as reduction in cell viability incubated for 24 hrs by MTT assay; format: functional, cell-based
HEK293 = test: Cytotoxicity against human HEK293 cells assessed as reduction in cell viability incubated for 24 hrs by MTT assay; format: functional, cell-based; conditions: HEK293, 24 h
OVCAR-3 = test: Cytotoxicity against human OVCAR-3 cells assessed as reduction in cell viability incubated for 24 hrs by MTT assay; format: functional, cell-based; conditions: OVCAR-3, 24 h
Calf thymus DNA [2] = test: Binding affinity to calf thymus DNA assessed as dissociation constant by UV-Vis spectroscopic analysis; format: nucleic-acid assay, Bos taurus
Calf thymus DNA [3] = test: Binding affinity to calf thymus DNA assessed as dissociation constant; format: nucleic-acid assay, Bos taurus
Calf thymus DNA [4] = test: Binding affinity to calf thymus DNA assessed as dissociation constant by reverse titration method; format: nucleic-acid assay, Bos taurus
Calf thymus DNA [5] = test: Binding affinity to calf thymus DNA assessed as dissociation constant measured at 337 nm absorbance by UV-Vis spectroscopic analysis; format: nucleic-acid assay, Bos taurus
Calf thymus DNA [6] = test: Binding affinity to calf thymus DNA assessed as dissociation constant measured at 332 nm absorbance by UV-Vis spectroscopic analysis; format: nucleic-acid assay, Bos taurus

Activity (Calf thymus DNA [1]): Active
Structure (SMILES): CN(C)CCn1c2ccccc2c2cc3ccccc3nc21

Activity (Calf thymus DNA [1]): Active
Structure (SMILES): c1ccc(-n2c3ccccc3c3cc4ccccc4nc32)cc1

Activity (Calf thymus DNA [1]): Active
Structure (SMILES): Cn1c2ccccc2c2cc3ccccc3nc21
pIC50 (SK-OV-3): < 4.00
pIC50 (B16-F10): < 4.00
pIC50 (HeLa): < 4.00
pIC50 (HEK293): < 4.00
pIC50 (OVCAR-3): < 4.00

Activity (Calf thymus DNA [1]): Active
Structure (SMILES): c1ccc2[nH]c3nc4ccccc4c-3cc2c1
pIC50 (SK-OV-3): < 4.00
pIC50 (B16-F10): < 4.00
pIC50 (HeLa): < 4.00
pIC50 (HEK293): < 4.00
pIC50 (OVCAR-3): < 4.00

Structure (SMILES): C[n+]1c2ccccc2cc2[n-]c3ccccc3c21 [CRYPTOLEPINE]
pKd (Calf thymus DNA [2]): 6.62
pKd (Calf thymus DNA [3]): 6.48

Activity (Calf thymus DNA [1]): Active
Structure (SMILES): CCCCn1c2ccccc2c2cc3ccccc3nc21

Activity (Calf thymus DNA [1]): Active
Structure (SMILES): CN(CCCn1c2ccccc2c2cc3ccccc3nc21)CCCn1c2ccccc2c2cc3ccccc3nc21

Activity (Calf thymus DNA [1]): Active
Structure (SMILES): CN(C)CCCn1c2ccccc2c2cc3ccccc3nc21
pKd (Calf thymus DNA [2]): 4.70
pKd (Calf thymus DNA [4]): 4.77
pKd (Calf thymus DNA [5]): 3.92
pKd (Calf thymus DNA [6]): 5.00

Activity (Calf thymus DNA [1]): Active
Structure (SMILES): CN1CCN(CCCn2c3ccccc3c3cc4ccccc4nc32)CC1

Activity (Calf thymus DNA [1]): Active
Structure (SMILES): c1ccc(Cn2c3ccccc3c3cc4ccccc4nc32)cc1

Activity (Calf thymus DNA [1]): Active
Structure (SMILES): c1ccc2nc3c(cc2c1)c1ccccc1n3CCCn1ccnc1

Activity (Calf thymus DNA [1]): Active
Structure (SMILES): CN(C)CCCCn1c2ccccc2c2cc3ccccc3nc21

Activity (Calf thymus DNA [1]): Active
Structure (SMILES): c1ccc2nc3c(cc2c1)c1ccccc1n3CCCN1CCCC1

Activity (Calf thymus DNA [1]): Active
Structure (SMILES): c1ccc2nc3c(cc2c1)c1ccccc1n3CCCN1CCOCC1
